In article PMC2910439, “Imperatoxin A, a Cell-Penetrating Peptide from Scorpion Venom, as a Probe of Ca^2+-Release Channels/Ryanodine Receptors” (Pharmaceuticals, 2010):
Starred links: 1 amine or outer side, 2 acyl side, 3 side chain; linkers in the order of their positions; H or OH if unused. Positions of bridges follow the written chain, without caps; N, C: chain ends. Non-standard residues stand in square brackets, D forms with d. Residues, ends and D or L forms follow the SMILES beside them. *: point of attachment. X1 = CC1CC(C)(C)Nc2c1cc1c(c2S(=O)(=O)O)Oc2c(S(=O)(=O)O)c3c(cc2=C1c1c(Cl)c(SCC(=O)*)c(Cl)c(Cl)c1C(=O)O)C(C)CC(C)(C)N=3; X2 = N=C(CCCSC1CC(=O)N(CCCCCN[*:1])C1=O)NCC(=O)[*:2]

Key:
[1] = tested on: intact mouse ventricular myocytes; type: cell-based; settings: for speed of penetration into living isolated cardiomyocytes: conclusion, native toxin judged by [Ca2+]i transients, derivative by fluorescence
Method: To visualize the cell-penetrating properties of Alexa-IpTxa in intact cells, ventricular cardiomyocytes were enzymatically isolated and incubated with 5 μM Alexa-IpTxa and Alexa 488-Wheat Germ Agglutinin (10 μg/mL) for 30 min at room temperature (see Experimental Methods). The distribution of Alexa-546-IpTxa (red fluorescence) and WAG-Alexa-488 (green fluorescence) were monitored in living, unfixed cardiac myocytes.
We next sought to establish a time-course for the translocation of Alexa-IpTxa across the plasma membrane of intact cardiomyocytes. […] Clear intracellular localization of fluorescence is seen only with Alexa-IpTxa, as early as 10 min after incubation (panel D), but more intensely after 20 min incubation (panel F). In order to refine the time-course of Alexa-IpTxa penetration into cardiomyocytes, we continuously monitored the evolution of fluorescence in 3 regions of interest (ROI) corresponding to the plasma membrane and adjacent cytosol (ROI-1), the bulk cytosol (ROI-2), and the nucleus (ROI-3). A fourth ROI (not shown) was defined to monitor changes in fluorescence of the bath solution. Animations of IpTxa translocation into cells are available online as supplementary data (URL: http://www.mdpi.com/1424-8247/3/4/1093/S1).
Isolated cardiac myocytes were incubated with Alexa-546-IpTxa (5 μM) with or without WGA-Alexa 488 (10 μg/mL) for 30 min in the dark. Images were acquired with a BioRad MR-1 confocal microscope coupled to a Nikon Disphot microscope and an X60 oil immersion objective using the Lasersharp 2000 software. Confocal images are 0.25 μm sections. All experiments were performed at room temperature.
Ventricular myocytes were imaged with a Zeiss META 5 confocal microscope equipped with laser scanning. Three regions of interest were delineated corresponding to the plasma membrane (ROI-1), […]. Changes in fluorescence intensity in these regions were monitored and analyzed. Alexa-546-IpTxa fluorescence was excited with the 488 nm line of an argon laser, and emitted light was filtered by a LP 585 filter. Alexa-546-IpTxa was perfused at a concentration of 1 μM. Scans were taken every 3 seconds for a total of 351 seconds. After the time series, perfusion was turned off and the cell remained in the bath for 30 minutes. Scans were taken at 9 minutes and 30 minutes.

[2] = tested on: intact mouse ventricular cardiomyocytes; experiment: Ca2+ imaging of field-stimulated ventricular myocytes perfused with toxin; type: cell-based
Method: IpTxa’s ability to induce subconducting states in single channels and to enhance binding of [^3H]ryanodine to SR vesicles distinguish it as a RyR agonist. […] Ventricular cardiomyocytes were enzymatically digested, loaded with the Ca^2+ indicator Fluo-3, and placed into the perfusion chamber of a Zeiss confocal microscope (see Experimental Methods). Cells were field-stimulated under Normal Tyrode (NT) solution, and Ca^2+ transients were recorded in line-scan mode (control). Perfusion was then changed to NT + IpTxa (in the range of 100 nM-30 µM), and transients were recorded in the presence of toxin (+IpTxa). We hypothesized that if IpTxa penetrates cardiomyocytes to reach its intracellular target, it would alter the shape of [Ca^2+]i transients elicited with field-stimulation. As expected, changes in [Ca^2+]i transients were evident within seconds of perfusion with the toxin. […] For this experiment, cells were paced at 0.5 Hz under NT solution (see Experimental Methods). Cells were scanned first without IpTxa (control transients, Figure 1A), and then IpTxa was perfused and a second scan was taken immediately afterward (Figure 1B).
Mouse ventricular myocytes were isolated by collagenase digestion of perfused mouse hearts using the method of Mitra and Morad with modification addressed by Wolska and Solaro [23]. Mice were heparinized and anesthetized […] before removal and hanging of the heart. Cells were suspended in Tyrode solution ((mM) 130 NaCl, 5.4 KCl, 0.4 NaH2PO4, 0.5 MgCl2, 25 HEPES, 22 glucose, 0.01 μg/mL insulin, pH7.4 with NaOH) and kept at room temperature until used within 6 h.
Changes in cytosolic [Ca^2+] using the Ca^2+-dependent fluorescent dye Fluo-3 AM. Fluo-3 AM was added to ventricular myocytes in Tyrodes solution (final concentration 10 μM) and incubated at room temperature for 30 minutes, after which the cells were washed and resuspended in Tyrodes solution. Fluorescence changes were monitored with a Zeiss META 5 line-scanning confocal microscope. Fluo-3 was excited at 488nm, and emissions were collected at 500-570 nm. Cells were perfused with normal Tyrodes and field-stimulated at 1 Hz. After recording control transients, synthetic, unmodified IpTxa was perfused at concentrations of 10 μM, 1 μM, and 100 nM for 10 seconds. To estimate the calcium load of the sarcoplasmic reticulum, we stopped stimulations and performed a rapid application of 10 mM caffeine to elicit complete Ca^2+ release.

[3] = tested on: isolated rat ventricular myocytes; settings: 0.5 mM; followed by steady decline to a new lower steady-state; cited from earlier work
Method: At lower concentrations (100-300 nM), IpTxa perfusion elicited several discernible stimulatory effects in most cells.

## CC(C)C[C@@H]1NC(=O)[C@H](Cc2c[nH]cn2)NC(=O)[C@@H]2CCCN2C(=O)[C@H](CC(C)C)NC(=O)[C@@H](NC(=O)[C@H](CC(=O)O)NC(=O)CNC(=N)CCCSC2CC(=O)N(CCCCCNC(=O)CSc3c(Cl)c(Cl)c(C(=O)O)c(C4=c5cc6c(c(S(=O)(=O)O)c5Oc5c4cc4c(c5S(=O)(=O)O)NC(C)(C)CC4C)=NC(C)(C)CC6C)c3Cl)C2=O)CSSC[C@@H]2NC(=O)[C@@H]3CSSC[C@@H](C(=O)N[C@@H](CCCNC(=N)N)C(=O)O)NC(=O)[C@H](CCCNC(=N)N)NC(=O)[C@H](CCCCN)NC(=O)[C@H](CCC(=O)O)NC(=O)[C@H](C)NC(=O)[C@H](CC(N)=O)NC(=O)[C@H]([C@@H](C)O)NC(=O)CNC(=O)[C@H](CCCNC(=N)N)NC(=O)[C@H](CCCNC(=N)N)NC(=O)[C@H](CCCCN)NC(=O)[C@H](CSSC[C@H](NC(=O)[C@H](CCCNC(=N)N)NC(=O)[C@H](CCCCN)NC1=O)C(=O)N[C@@H](CCCCN)C(=O)N[C@@H](C)C(=O)N[C@@H](CC(=O)O)C(=O)N[C@@H](CC(N)=O)C(=O)N[C@@H](CC(=O)O)C(=O)N3)NC(=O)[C@H](CCCCN)NC(=O)[C@H](CCCCN)NC(=O)CNC2=O (stereo partly drawn) [Alexa-IpTxa] (X1-[X2]DCLPHLKRCKADNDCCGKKCKRRGTNAEKRCR-OH; disulfide 3-17, 10-21, 16-32; C-terminus assumed)
[1]; 1 μM perfusion, confocal, more intense at later time
  time at which clear intracellular localization of fluorescence is seen: ≤ 10 min
[1]
  speed of penetration into living isolated cardiomyocytes: slower (minutes)

## CC(C)C[C@@H]1NC(=O)[C@H](Cc2c[nH]cn2)NC(=O)[C@@H]2CCCN2C(=O)[C@H](CC(C)C)NC(=O)[C@@H](NC(=O)[C@H](CC(=O)O)NC(=O)CN)CSSC[C@@H]2NC(=O)[C@@H]3CSSC[C@@H](C(=O)N[C@@H](CCCNC(=N)N)C(=O)O)NC(=O)[C@H](CCCNC(=N)N)NC(=O)[C@H](CCCCN)NC(=O)[C@H](CCC(=O)O)NC(=O)[C@H](C)NC(=O)[C@H](CC(N)=O)NC(=O)[C@H]([C@@H](C)O)NC(=O)CNC(=O)[C@H](CCCNC(=N)N)NC(=O)[C@H](CCCNC(=N)N)NC(=O)[C@H](CCCCN)NC(=O)[C@H](CSSC[C@H](NC(=O)[C@H](CCCNC(=N)N)NC(=O)[C@H](CCCCN)NC1=O)C(=O)N[C@@H](CCCCN)C(=O)N[C@@H](C)C(=O)N[C@@H](CC(=O)O)C(=O)N[C@@H](CC(N)=O)C(=O)N[C@@H](CC(=O)O)C(=O)N3)NC(=O)[C@H](CCCCN)NC(=O)[C@H](CCCCN)NC(=O)CNC2=O [IpTxa, imperatoxin A] (H-GDCLPHLKRCKADNDCCGKKCKRRGTNAEKRCR-OH; disulfide 3-17, 10-21, 16-32 (inferred); N-terminus and C-terminus assumed)
[1]
  speed of penetration into living isolated cardiomyocytes: rapid (few seconds)
[2]; 100 nM to 3 µM perfused, in some cells
  effect on diastolic [Ca2+]i: elevated diastolic [Ca^2+]i
[2]; 30 µM perfused in normal Tyrode, cells paced at 0.5 Hz, Fluo indicator, line-scan confocal, representative of three of four experiments
  effect on [Ca2+]i transients at high concentration: complete cessation of [Ca^2+]i transients
[2]; 100-300 nM perfused, followed by gradual diminution to a new, lower steady-state, representative of 12 of 36 experiments
  effect on [Ca2+]i transient amplitude at lower concentrations: significant increase in the amplitude of the [Ca^2+]i transient
[2]; perfusion on intact cells
  lag time of effects on intracellular Ca2+ signaling after perfusion: 2 to 3 s

## CC1CC(C)(C)Nc2c1cc1c(c2S(=O)(=O)O)Oc2c(S(=O)(=O)O)c3c(cc2=C1c1c(Cl)c(SCC(=O)NCCCCCN2C(=O)C=CC2=O)c(Cl)c(Cl)c1C(=O)O)C(C)CC(C)(C)N=3 (stereo not drawn) [Alexa-maleimide, Alexa-Fluor-546-C5-maleimide, reference compound]
[1]; as stated for the fluorophore reagent
  membrane permeability (negative control): membrane-impermeable

## Cn1c(=O)c2c(ncn2C)n(C)c1=O [caffeine]
[3]
  effect on Ca2+ transient amplitude: brief increase in the amplitude of the Ca^2+ transient
